Measurements published in patent publication US20230133064A1, “T CELL MANUFACTURING PROCESS” (Adaptimmune Limited, priority 2020, published 2023).

Tests used:
Assay type in all cases: cell-based, human
T cells [1] = assay: Memory phenotype flow cytometry (CCR7/CD45RA) of transduced CD8+ T cells at day 10 harvest
Source text: All cells were expanded and transduced, using a static expansion system, (scalable G-Rex®). Cryopreserved leukapheresis starting materials from healthy donors or cancer patients were thawed, washed, activated with CD3/CD28 magnetic Dynabeads, and CD3+ positive fraction was magnetically separated. The starting leukapheresis material was similar across the healthy donors. CD3+ cells ranged from 44-64%, all with an increased purity of 79-87% following positive isolation using anti CD3/CD28 Dynabeads. CD3+ phenotyping identified a range of stem cell memory (SCM) markers (CCR7+/CD45RA+) ranging from 11.6-57% in the CD8+ compartment between individuals. Enriched CD3+ T cells were seeded based on total nucleated cell (TNC) counts at 1.5×10^6 TNC/cm^2 density in the G-Rex® static cell expansion system device, in 10% of final culture volume using TexMACS+5% human AB serum (HABS) supplemented with 100 IU/ml IL-2. Transduction with vector expressing a heterologous TCR (recognising MAGE-A4) was performed 18-26 hours post addition of CD3/CD28 Dynabeads to the cells, using lentivirus (LV) vector at a MOI of 0.45. Media was then added to top up to the final culture volume, this was performed 17-24 hours post transduction with TexMACS+5% HABS+500 IU/ml IL-2. Cells were then incubated at 37° C., 5% CO2 for a further 8 days. MK-2206 was added to the media at defined intervals; in day 0 seeding media and supplemented in media used for day 2 media addition, or solely supplemented in media for day 2 media addition. The concentration of the compound varied for each experiment, 10 uM, 7.5 uM, 5 uM, 2.5 uM, 2 uM, 1.5 uM, 1 uM, 0.5 uM, 0.25 uM, 0.1 uM, 0.05 uM as dictated in the following examples. T cells were harvested 10 days post seeding. After bead removal, T-cells were counted by automated cell analysis (with […]). Harvested cells were then frozen for later phenotypic and functional analysis as described. Flow cytometry was performed on healthy donor material on day 10 harvest from the described process to determine Memory Phenotype markers of cultured cells using CCR7 and CD45RA staining

[2] = tested on: T-cells stimulated with MAGEA4-positive cell line A375; assay: Antigen-stimulated IFNγ release by ELISA, expanded T-cells co-cultured with A375 for 48 hours
Method: Function of expanded T-cells was evaluated based on the levels of cytokine release by expanded T-cells following antigen-stimulation with the MAGEA4-expressing cell line, A375. A375 MAGEA4 positive target cells were counted using automated cell counter and seeded in a 96 well U-bottom plate at 30,000 viable nucleated cells (VNC) per well, in 100 uL volume per well, one day prior to T-cell stimulation and incubated overnight at 37° C., 5% CO2. Wells that were used as “T cells alone” control, received 100 uL R10 media (RPMI medium with 10% FBS and 1% Penicillin/Streptomycin) only. Following overnight incubation of target cells, harvested and frozen T-cells were thawed at 37° C. in the water bath and washed with R10 media. Cells were rested in R10 media at a density of 2×10^6 VNC/mL for 2 hours at 37° C., 5% CO2. After 2-hour rest, T-cells were counted using automated cell counter, and cultures were normalised to 35% transduction efficiency for all donors combining calculated amount of transduced and non-transduced VNC for each condition. […] Colorimetric read-out was analysed (BMG LABTECH FLUOstar Omega plate reader) at OD 450. […] For the cytokine release assays, the target and effector cells were co-cultured for 48 hours then the supernatants were collected and analysed for IFN gamma levels by ELISA. […]

T cells [3] = assay: T cell expansion in G-Rex static culture, TNC counts at day 10 harvest (ViCELL)
Source text: All cells were expanded and transduced, using a static expansion system, (scalable G-Rex®). Cryopreserved leukapheresis starting materials from healthy donors or cancer patients were thawed, washed, activated with CD3/CD28 magnetic Dynabeads, and CD3+ positive fraction was magnetically separated. The starting leukapheresis material was similar across the healthy donors. CD3+ cells ranged from 44-64%, all with an increased purity of 79-87% following positive isolation using anti CD3/CD28 Dynabeads. CD3+ phenotyping identified a range of stem cell memory (SCM) markers (CCR7+/CD45RA+) ranging from 11.6-57% in the CD8+ compartment between individuals. Enriched CD3+ T cells were seeded based on total nucleated cell (TNC) counts at 1.5×10^6 TNC/cm^2 density in the G-Rex® static cell expansion system device, in 10% of final culture volume using TexMACS+5% human AB serum (HABS) supplemented with 100 IU/ml IL-2. Transduction with vector expressing a heterologous TCR (recognising MAGE-A4) was performed 18-26 hours post addition of CD3/CD28 Dynabeads to the cells, using lentivirus (LV) vector at a MOI of 0.45. Media was then added to top up to the final culture volume, this was performed 17-24 hours post transduction with TexMACS+5% HABS+500 IU/ml IL-2. Cells were then incubated at 37° C., 5% CO2 for a further 8 days. MK-2206 was added to the media at defined intervals; in day 0 seeding media and supplemented in media used for day 2 media addition, or solely supplemented in media for day 2 media addition. The concentration of the compound varied for each experiment, 10 uM, 7.5 uM, 5 uM, 2.5 uM, 2 uM, 1.5 uM, 1 uM, 0.5 uM, 0.25 uM, 0.1 uM, 0.05 uM as dictated in the following examples. T cells were harvested 10 days post seeding. After bead removal, T-cells were counted by automated cell analysis (with ViCELL). Harvested cells were then frozen for later phenotypic and functional analysis as described.
Healthy donor material (leukapheresis material comprising white blood cells separated from a donor sample of blood) was processed for culture in static expansion (G-Rex device) following the aforementioned process for a 10 day duration. The cells were cultured with MK-2206 (1.25, 2.5, 5.0, 10 uM) added to cultures on day 0+day 2 or day 2 alone (with the day 2 media addition). On harvest, Total Nucleated Cell (TNC) counts were performed using an automated cell counter (ViCELL) to provide expansion data, and flow cytometry performed to determine phenotype. The harvested cultures were frozen and later thawed for functional assessment, an antigen stimulated cytokine release assay (1.3 described above).
The concentration of MK-2206 was tested in further titratration from 0.05 to 10 uM to fully determine optimal dosing and day 0(+2) and day 2 alone are both assessed to determine the optimal time of addition. Again, expansion, phenotype and cytokine production data has been assessed. An additional four donors were tested at the varying concentrations, to provide a full titration range in this study, 10 uM to 0.05 uM. All donors were tested in 10 M G-Rex following the described process and were harvested on Day 10. Expansion data considered the timepoint of addition of MK-2206; Day 0+2 and Day 2 alone.

[4] = Day 0+2 addition, all concentrations 0.05-10 uM, across donors, FIG. 3A

Compound: NC1(c2ccc(-c3nc4ccn5c(=O)[nH]nc5c4cc3-c3ccccc3)cc2)CCC1 [MK-2206]
- CCR7+CD45RA+ populations at harvest compared to the untreated control (T cells [1]; added on day 0+2 and day 2 alone, CD3+/Dextramer+/CD8+ compartment, FIG. 4): increased
- EMRA population versus untreated control (T cells [1]; all concentrations tested): remains similar to the untreated control
- CD62L expression (T cells [1]; cells cultured with MK-2206): increase
- CCR7−CD45RA− effector memory (EM) populations (T cells [1]; cells cultured with MK-2206, FIG. 4): decrease
- IFN gamma production following antigen stimulation versus untreated control ([2]; day 2 addition of MK-2206, FIG. 5): highest increase
- IFN gamma production following antigen stimulation ([2]; increasing MK-2206 concentration, >5 uM, FIG. 5): decrease
- expansion (TNC counts) (T cells [3]; 10 uM, all timepoints for addition, FIG. 2): reduced expansion
- TNC yield (T cells [3]; Day 0(+2) addition, FIG. 2): low yield
- limit of expansion decrease (fold change to untreated control) (T cells [3]; [4]): 0.15 fold
- limit of expansion increase (fold change to untreated control) (T cells [3]; [4]): 1.5 fold
- impact on expansion (T cells [3]; Day 2 addition, 0.05-10 uM, FIG. 3B): no negative impact on expansion
- concentration providing peak expansion (T cells [3]; Day 2 addition, 3 donors, FIG. 3B): 0.5 µM
- expansion response relative to control (T cells [3]; Day 2 addition, all conditions, FIG. 3B): 1-2 fold
- T cell expansion (T cells [3]; MK-2206 added on Day 2, after activation on day 0 and transduction on day 1): Improved T cell expansion
- TNC yield (T cells [3]; day 2 alone addition, with exception of 10 uM, FIG. 2): improved TNC yield
- expansion (TNC counts) compared to the untreated control (T cells [3]; healthy donor material, lower concentrations of MK-2206 (1.25-10 uM tested), day 10 harvest, FIG. 2): increased expansion
